Laboratory results as given in patent US20140155376A1, “PYRROLOPYRAZINE KINASE INHIBITORS” (Hoffmann-La Roche Inc., priority 2010, published 2014).

molecular target: T1, JAK3 (recombinant human kinase domain; h-jak3(810-1124)) (Homo sapiens, UniProt P52333); test: Determination of IC50 of Janus Kinase (JAK) inhibition: JAK3, radioactive end-point assay with 33P-ATP; assay type: biochemical; settings: JAK3 kinase domain; ATP 1.5 uM, peptide 50 uM, 20 minutes, room temperature, 10% DMSO; read-out: Ic50 h-jak3(810-1124)-sf9-c:no additive
T1 construct: h-jak3(810- 1124)-sf9-c; made in house; host or cells: Sf9 insect cells
T1 sequence (P52333 810-1124): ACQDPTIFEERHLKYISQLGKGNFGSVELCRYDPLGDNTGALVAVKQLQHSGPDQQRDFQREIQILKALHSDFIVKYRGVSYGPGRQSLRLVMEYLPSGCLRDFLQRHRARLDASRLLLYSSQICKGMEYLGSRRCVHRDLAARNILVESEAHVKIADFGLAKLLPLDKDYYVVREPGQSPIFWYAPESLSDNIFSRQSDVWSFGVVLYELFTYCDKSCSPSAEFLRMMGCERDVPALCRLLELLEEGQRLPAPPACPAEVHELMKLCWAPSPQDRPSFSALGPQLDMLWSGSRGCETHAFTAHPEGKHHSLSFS

| Compound | IC50 [nM] |
| --- | --- |
| N#CCCNC(=O)c1c[nH]c2ncc(C3CC3)nc12 [Example I-13, 2-Cyclopropyl-5H-pyrrolo[2,3-b]pyrazine-7-carboxylic acid (2-cyano-ethyl)-amide] | 436 |
| C[C@@H](NC(=O)c1c[nH]c2ncc(C3CC3)nc12)[C@](C)(O)CC#N [Example I-91, 2-Cyclopropyl-5H-pyrrolo[2,3-b]pyrazine-7-carboxylic acid ((1R,2R)-3-cyano-2-hydroxy-1,2-dimethyl-propyl)-amide] | 38.7 |
| CC(C)(C)[C@@H](CO)NC(=O)c1c[nH]c2ncc(C3CC3)nc12 [Example I-47, 2-Cyclopropyl-5H-pyrrolo[2,3-b]pyrazine-7-carboxylic acid ((S)-1-hydroxymethyl-2,2-dimethyl-propyl)-amide] | 343 |
| C[C@H](NC(=O)c1c[nH]c2ncc(-c3ccc(C(N)=O)s3)nc12)C(C)(C)C [Example I-215, 2-(5-Carbamoyl-thiophen-2-yl)-5H-pyrrolo[2,3-b]pyrazine-7-carboxylic acid ((S)-1,2,2-trimethyl-propyl)-amide] | 0.21 |
| CC(Cn1cccn1)NC(=O)c1ccc(-c2cnc3[nH]cc(C(=O)N[C@@H](C)C(C)(C)C)c3n2)s1 (stereo partly drawn) [Example I-158, 2-[5-(1-Methyl-2-pyrazol-1-yl-ethylcarbamoyl)-thiophen-2-yl]-5H-pyrrolo[2,3-b]pyrazine-7-carboxylic acid ((S)-1,2,2-trimethyl-propyl)-amide] | 0.32 |
| C[C@H](NC(=O)c1c[nH]c2ncc(-c3ccc(C(=O)NCc4c(F)cccc4F)s3)nc12)C(C)(C)C [Example I-188, 2-[5-(2,6-Difluoro-benzylcarbamoyl)-thiophen-2-yl]-5H-pyrrolo[2,3-b]pyrazine-7-carboxylic acid ((S)-1,2,2-trimethyl-propyl)-amide] | 0.41 |
| C[C@H](NC(=O)c1c[nH]c2ncc(-c3ccc(C(=O)N4CCC4)s3)nc12)C(C)(C)C [Example I-180, 2-[5-(Azetidine-1-carbonyl)-thiophen-2-yl]-5H-pyrrolo[2,3-b]pyrazine-7-carboxylic acid ((S)-1,2,2-trimethyl-propyl)-amide] | 0.32 |
| CC(C)(O)[C@@H](NC(=O)c1c[nH]c2ncc(C3CC3)nc12)C1CCCCC1 [Example I-94, 2-Cyclopropyl-5H-pyrrolo[2,3-b]pyrazine-7-carboxylic acid ((S)-1-cyclohexyl-2-hydroxy-2-methyl-propyl)-amide] | 878 |
| CC(C)NC(=O)c1c[nH]c2ncc(Oc3ccccc3Cc3ccccc3)nc12 [Example I-237, 2-(2-Benzyl-phenoxy)-5H-pyrrolo[2,3-b]pyrazine-7-carboxylic acid isopropylamide] | 5360 |
| C[C@H](NC(=O)c1c[nH]c2ncc(-c3ccc(C(=O)N4CC5(COC5)C4)s3)nc12)C(C)(C)C [Example I-217, 2-[5-(2-Oxa-6-aza-spiro[3.3]heptane-6-carbonyl)-thiophen-2-yl]-5H-pyrrolo[2,3-b]pyrazine-7-carboxylic acid ((S)-1,2,2-trimethyl-propyl)-amide] | 0.11 |

More lines, now with the values ahead:

| IC50 [nM] | Compound |
| --- | --- |
| 934 | CC(CN(C)C)NC(=O)c1c[nH]c2ncc(C3CC3)nc12 (stereo not shown) [Example I-27, 2-Cyclopropyl-5H-pyrrolo[2,3-b]pyrazine-7-carboxylic acid (2-dimethylamino-1-methyl-ethyl)-amide] |
| 1110 | Cc1cc(C)nc(Oc2cnc3[nH]cc(C(=O)NC(C)C)c3n2)c1 [Example I-279, 2-(4,6-Dimethyl-pyridin-2-yloxy)-5H-pyrrolo[2,3-b]pyrazine-7-carboxylic acid isopropylamide] |
| 7.46 | C[C@@H](NC(=O)c1c[nH]c2ncc(C3CC3)nc12)C(C)(C)C [Example I-62, 2-Cyclopropyl-5H-pyrrolo[2,3-b]pyrazine-7-carboxylic acid ((R)-1,2,2-trimethyl-propyl)-amide] |
| 0.19 | C[C@H](NC(=O)c1c[nH]c2ncc(-c3cnn(C)c3)nc12)C(C)(C)C [Example I-141, 2-(1-Methyl-1H-pyrazol-4-yl)-5H-pyrrolo[2,3-b]pyrazine-7-carboxylic acid ((S)-1,2,2-trimethyl-propyl)-amide] |
| 0.11 | C[C@H](NC(=O)c1c[nH]c2ncc(-c3ccc(C(=O)NCc4ccccn4)s3)nc12)C(C)(C)C [Example I-166, 2-{5-[(Pyridin-2-ylmethyl)-carbamoyl]-thiophen-2-yl}-5H-pyrrolo[2,3-b]pyrazine-7-carboxylic acid ((S)-1,2,2-trimethyl-propyl)-amide] |
| 0.17 | C[C@H](NC(=O)c1c[nH]c2ncc(-c3ccc(C(=O)NCc4ccncc4)s3)nc12)C(C)(C)C [Example I-165, 2-{5-[(Pyridin-4-ylmethyl)-carbamoyl]-thiophen-2-yl}-5H-pyrrolo[2,3-b]pyrazine-7-carboxylic acid ((S)-1,2,2-trimethyl-propyl)-amide] |
| 6460 | CCNC(=O)c1c[nH]c2ncc(Oc3cccc(C(C)(C)C)c3)nc12 [Example I-247, 2-(3-tert-Butyl-phenoxy)-5H-pyrrolo[2,3-b]pyrazine-7-carboxylic acid ethylamide] |
| 9.99 | CC(NC(=O)c1c[nH]c2ncc(C3CC3)nc12)C1CCCC1 (stereo not shown) [Example I-95, 2-Cyclopropyl-5H-pyrrolo[2,3-b]pyrazine-7-carboxylic acid (1-cyclopentyl-ethyl)-amide] |
| 0.91 | C[C@H](NC(=O)c1c[nH]c2ncc(-c3ccc(C(=O)NC4CCOCC4)s3)nc12)C(C)(C)C#N [Example I-223, 2-[5-(Tetrahydro-pyran-4-ylcarbamoyl)-thiophen-2-yl]-5H-pyrrolo[2,3-b]pyrazine-7-carboxylic acid ((S)-2-cyano-1,2,2-trimethyl-ethyl)-amide] |
| 0.32 | C[C@H](NC(=O)c1c[nH]c2ncc(-c3ccc(C(=O)N[C@H](C)C4CC4)s3)nc12)C(C)(C)C [Example I-162, 2-[5-((R)-1-Cyclopropyl-ethylcarbamoyl)-thiophen-2-yl]-5H-pyrrolo[2,3-b]pyrazine-7-carboxylic acid ((S)-1,2,2-trimethyl-propyl)-amide] |
| 0.13 | C[C@H](NC(=O)c1c[nH]c2ncc(-c3ccc(C(=O)N4CC(CO)(CO)C4)s3)nc12)C(C)(C)C [Example I-218, 2-[5-(3,3-Bis-hydroxymethyl-azetidine-1-carbonyl)-thiophen-2-yl]-5H-pyrrolo[2,3-b]pyrazine-7-carboxylic acid ((S)-1,2,2-trimethyl-propyl)-amide] |
| 12 | C[C@H](NC(=O)c1c[nH]c2ncc(C3CC3)nc12)C1(C#N)CCCC1 [Example I-101, 2-Cyclopropyl-5H-pyrrolo[2,3-b]pyrazine-7-carboxylic acid [(S)-1-(1-cyano-cyclopentyl)-ethyl]-amide] |
| 12.2 | C=C(C)c1cnc2[nH]cc(C(=O)N[C@@H](C)C(C)(C)O)c2n1 [Example I-3, 2-Isopropenyl-5H-pyrrolo[2,3-b]pyrazine-7-carboxylic acid ((S)-2-hydroxy-1,2-dimethyl-propyl)-amide] |
| 10.3 | C[C@@H](NC(=O)c1c[nH]c2ncc(-c3cnn(C)c3)nc12)C(C)(C)O [Example I-102, 2-(1-Methyl-1H-pyrazol-4-yl)-5H-pyrrolo[2,3-b]pyrazine-7-carboxylic acid ((R)-2-hydroxy-1,2-dimethyl-propyl)-amide] |
| 20.1 | C[C@H](NC(=O)c1c[nH]c2ncc(C3CC3)nc12)C1CCCCC1 [Example I-32, 2-Cyclopropyl-5H-pyrrolo[2,3-b]pyrazine-7-carboxylic acid ((S)-1-cyclohexyl-ethyl)-amide] |
